The record followed here is ChEMBL document CHEMBL3881528, “Macrocyclic Quinoxaline Compounds as HCV NS3 Protease Inhibitors” (2010).

Each structure is given as a SMILES string.

In data set [1] the test system is Liver. Nature of the data set: Covalent protein binding in rat liver at 25 to 75 […], po using radio-labeled compound measured at 6 hrs by scintillation counting method. Format: ADME, organism-based. To be noted: in vivo.
For data set [2], the system named is Plasma. As to the kind of experiment: Covalent protein binding in rat plasma at 25 to 75 […], po using radio-labeled compound measured at 6 hrs by scintillation counting method. Format: ADME, organism-based.
The nature of data set [3]: Drug level in dog liver at 5 mg/kg, po measured at 24 hrs by RP-HPLC method. Format: ADME, organism-based, Canis lupus familiaris. To be noted: read-out: Drug uptake.
Data set [4] is described as follows: Drug level in rat liver at 25 mg/kg, po measured at 24 hrs by RP-HPLC method. Format: ADME, organism-based. The conditions noted are these: read-out: Drug uptake.

`C=C[C@@H]1C[C@]1(NC(=O)[C@@H]1C[C@@H]2CN1C(=O)[C@H](C1CCCC1)NC(=O)O[C@@H]1CCC[C@H]1CCCCCc1nc3ccccc3nc1O2)C(=O)NS(=O)(=O)C1CC1`: the PB is listed as 38 pmolequiv/mg in data set [1] and 15 pmolequiv/mg in data set [2].
On to `C=C[C@@H]1C[C@]1(NC(=O)[C@@H]1C[C@@H]2CN1C(=O)[C@H](C(C)(C)C)NC(=O)O[C@@H]1C[C@H]1CCCCCc1nc3ccc(OC)cc3cc1O2)C(=O)[N-]S(=O)(=O)C1CC1.[K+]`, for which the concentration at 24 h in data set [3] is 3.3 µM; in data set [4], 8.5 µM.
As to `C=C[C@@H]1C[C@]1(NC(=O)[C@@H]1C[C@@H]2CN1C(=O)[C@H](C1CCCC1)NC(=O)O[C@@H]1CCC[C@H]1CCCCCc1nc3ccccc3cc1O2)C(=O)NS(=O)(=O)C1CC1`, the PB in data set [1] is on record as 63 pmolequiv/mg; in data set [2], 6 pmolequiv/mg.
As to `C=C[C@@H]1C[C@]1(NC(=O)[C@@H]1C[C@@H]2CN1C(=O)[C@H](C(C)(C)C)NC(=O)O[C@@H]1C[C@H]1CCCCCc1nc3ccc(OC)cc3nc1O2)C(=O)[N-]S(=O)(=O)C1CC1.[K+]`, the PB in data set [1] and in data set [2] was 3 pmolequiv/mg in each case. Moreover, the values for the concentration at 24 h in data set [3] and in data set [4] were 120 µM and 27.9 µM, respectively.
As for `C=C[C@@H]1C[C@]1(NC(=O)[C@@H]1C[C@@H]2CN1C(=O)[C@H](C(C)(C)C)NC(=O)O[C@@H]1CCC[C@H]1CCCCCc1nc3ccc(OC)cc3cc1O2)C(=O)NS(=O)(=O)C1CC1`, the PB was found to be 24 pmolequiv/mg in data set [1] and 6 pmolequiv/mg in data set [2].
